Values quoted from earlier work, collected in US9861579B2, “Foamable formulation” (Nuvo Pharmaceuticals Inc., priority 2010, dated 2018).

log P: 3.6
solubility in water (practically insoluble in water): < 0.1 mg/mL
SMILES: CC(C)Cc1ccc(C(C)C(=O)O)cc1 (racemic) [Ibuprofen, 2-(4-isobutylphenyl) propanoic acid]
